Experimental data from the supplement of paper PMC11997997.

Tests used:
[1] = tested on: Mycobacterium tuberculosis CDC1551 (intracellular, in murine BMDM); experiment: area under intracellular growth-inhibition dose-response curve (AUC (% inhibition x dose, relative)); higher = more potent; conditions: duration: 6 days; dose range: 0.13-80 uM, 8 points
Summary of the method: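 Macrophages derived from primary murine bone marrow were infected for 1 h at multiplicity of infection 1 with luciferase-expressing M. tuberculosis CDC1551, then treated for 6 days at final concentrations of 80–0.13 μM. Bright-Glo luciferin signal, normalised to a reference drug control and the lowest-concentration wells, gave the growth readout. Area under the growth-inhibition dose–response curve was then calculated in GraphPad Prism.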

[2] = tested on: murine bone marrow-derived macrophages; experiment: area under cytotoxicity dose-response curve (AUC (% cytotoxicity x dose, relative)); higher = more cytotoxic; conditions: duration: 6 days; dose range: 0.13-80 uM, 8 points
Summary of the method: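 Primary murine bone marrow-derived macrophages in opaque 384-well plates were exposed to an 8-point, 2.5-fold dilution series (final 80–0.13 μM) for 6 days at 37 °C in 5% CO2. Viability was read with Promega's CellTiter-Glo luminescence assay, and percent cytotoxicity was normalised to vehicle and positive control wells. Cytotoxicity is reported as the area under the dose–response curve, calculated in GraphPad Prism version 10.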

SMILES | area under intracellular growth-inhibition dose-response curve [1] | area under cytotoxicity dose-response curve [2]
CCOc1ccc(-c2cc(C)[n+](CCc3ccc(OC)c(OC)c3)c(-c3ccc(OCC)cc3)c2)cc1.[O-][Cl+3]([O-])([O-])[O-] | 60.7 | 102
CC(=O)Nc1cccc(/C(C)=N/NC(N)=S)c1 | 235 | < 0
Cc1nnc(NCc2cccc(Cl)c2)c2ccccc12 | 211 | 128
NC(=S)N/N=C1\CCOc2ccc(Cl)cc21 | 179 | 31.5
CCNC(=S)Nc1ccc(OCc2nc3ccccc3s2)cc1 | 273 | 35.3
CC(C)c1ccc(NC(=O)NC2CCCCC2)cc1 | 185 | 66.5
COc1c(N2CCN(C(=S)NC3CC4CCC3C4)C(C)C2)c(F)cc2c(=O)c(C(=O)O)cn(C3CC3)c12 (stereo unspecified) | 239 | 8.11
C/C(CC(=O)Nc1cccc(F)c1)=N\NC(=O)c1ccncc1 | 272 | 9.96
Cc1nnc(SCC(=O)NNC(=O)COc2ccc(Br)cc2)n1C | 68.9 | 1.25
CCc1ccc(C(=O)/C=C/c2ccc([N+](=O)[O-])o2)cc1 | 142 | 5.66
CNc1nc(SCc2ccc(C)cc2)nc2c1CCCC2 | 274 | 19.6
CCC12CN3CCN(CC(C3)/C1=N/NC(=O)c1ccncc1)C2 | 206 | 13.3
CN(C)CCSc1nc2cc(S(=O)(=O)N3CCCCC3)ccc2o1 | 1.9 | 11.5
Cc1cc(OCC(=O)NNC(=O)c2ccncc2)ccc1C(C)C | 259 | 34.5
CCCCCc1ccc(OCCC[n+]2ccccc2)c(CCCCC)c1.[Cl-] | 137 | 53
COc1ccc2nc(C)cc(N/N=C/c3cccc(OC)c3O)c2c1 | 124 | 69
NC(=S)N/N=C/c1ccc(Br)o1 | 246 | 3.81
O=C1CN(C(=O)COC(=O)c2ccc(Br)o2)c2ccccc2N1 | 58.2 | 23.5
CC(C)c1ccc(NC(=S)Nc2ccc3c[nH]nc3c2)cc1 | 271 | < 0
COc1ccc(NC(=O)C(C)NC2=NS(=O)(=O)c3ccccc32)cc1S(N)(=O)=O (stereo unspecified) | 63.2 | 8.48
O=C(NC1CCCCCCC1)c1ccco1 | 234 | 3.98
O=C(c1cccs1)N1CCC(c2ccccc2)C1 (stereo unspecified) | 189 | < 0
Cc1ccc(C(=O)N2CCCC2)cc1Br | 166 | 8.65
C=CCN1/C(=C/c2ccc3cc(C)ccc3[n+]2CC)C=Cc2ccccc21.[Br-] | 102 | 86.8
COc1cc(/C=N/NC(N)=S)ccc1OCC(=O)Nc1ccc(C)c(C)c1 | 242 | 10.1
O=C(Nc1ccc2c(c1)OCCO2)NC12CC3CC(CC(C3)C1)C2 | 136 | 22.8
Cc1ccc2ccc3ccc(C)nc3c2n1 | 29.4 | 160

SMILES | area under intracellular growth-inhibition dose-response curve [1] | area under cytotoxicity dose-response curve [2]
CCCCNC(=S)Nc1ccc2c[nH]nc2c1 | 190 | 37.5
CC(=O)Nc1ccc(S(=O)(=O)Nc2ccc(N3CCCCC3)cc2)cc1 | 27.8 | 16.6
CC(C)C(=O)N1CCN(c2ccc(NC(=O)c3ccc([N+](=O)[O-])o3)cc2Cl)CC1 | 109 | 79.8
C/C(=N\NC(=O)c1ccncc1)c1cccc(NC(=O)c2ccc(C(C)(C)C)cc2)c1 | 264 | 47.8
N#C/C(=N\Nc1ccc(Cl)cc1)C(N)=S | 102 | 16.4
CC[C@@H](C)[C@@H]1CN([C@@H](CN2CCC[C@H]2CN2C(N)=NC[C@@H]2Cc2ccccc2)C(C)C)C(=N)N1CCCC1CCCC1 | 83.6 | 98.8
COc1cccc2c1C(=O)c1c(O)c3c(c(O)c1C2=O)C[C@@](O)(C(=O)CO)C[C@@H]3O[C@H]1C[C@H](N)[C@H](O)[C@H](C)O1.Cl | 117 | 147
CC(=NNC(=O)c1ccncc1)c1cccc(Cl)c1 | 258 | < 0
CCCCC(=O)NCc1ccc(Cl)cc1 | 197 | 27.4
CC(=O)c1cc(NC(=O)c2ccc(C)cc2)c(=O)oc1/C=C/N(C)C | 115 | 37.1
CC(NC(=O)c1ccccc1F)C12C[C@H]3C[C@@H](C1)C[C@@H](C2)C3 (stereo partly specified) | 234 | 18.2
C/C(=N\NC(N)=S)c1ccc(-n2ccnc2)cc1 | 195 | 69
COc1c(N2CCN(C(=S)Nc3ccccc3F)C(C)C2)c(F)cc2c(=O)c(C(=O)O)cn(C3CC3)c12 (stereo unspecified) | 275 | < 0
O=[N+]([O-])C(=C\Nc1ccccc1O)/C=N/c1ccccc1O | 57.2 | 3.94
CCOC(=O)c1cc(-c2ccc(N3CCOCC3)cc2)nn1-c1ccc(F)cc1F | 15.8 | 22.7
CC(=O)O[C@H]1C[C@@]2(C)[C@@H](C[C@@H](O)[C@H]3[C@@]4(C)CC[C@@H](O)[C@@H](C)[C@@H]4CC[C@@]32C)/C1=C(\CCC=C(C)C)C(=O)[O-].[Na+] | 182 | 74.7
CCCC12CN3CCN(CC(C3)/C1=N\NC(=O)c1ccncc1)C2 | 233 | 28.1
O=C(NCc1ccccc1)c1cc2ccccc2o1 | 197 | 71.7
Cc1ccc(CNC(=O)c2ccc(Br)o2)cc1 | 267 | < 0
C=CCOc1ccc(/C=N\NC(N)=S)cc1 | 276 | 10.8
CC1CCCC(/C=N/c2ccc(C(=O)O)c(O)c2)=C1O (stereo unspecified) | 135 | < 0
CCOC(=O)Nc1ccc(C(=O)Oc2ccccc2)c(O)c1 | 31.9 | 63.8
CC1C/C(=C/c2ccncc2)C(=O)/C(=C/c2ccncc2)C1 (stereo unspecified) | < 0 | 54.5
C/C(=N\Nc1nc(C)c(C)s1)c1ccc([N+](=O)[O-])cc1 | 222 | < 0
O=C(N/N=C/c1ccc(O)cc1)c1ccncc1 | 168 | 1.59
CC1CCN(Cc2nc(-c3ccccc3)no2)CC1.Cl | 175 | 111
